Assay: xn = mol fraction of the nth substance listed
Details: 101 kPa

CO + CCCC[n+]1ccn(C)c1.[Cl-]
x2 = 0
Details | electrical conductivity [S/m]
293.15 K | 0.003
303.15 K | 0.004
313.15 K | 0.007
323.15 K | 0.011

CCCC[n+]1ccn(C)c1.[Cl-] + CO
electrical conductivity [S/m]
Details | x1 = 0.0011 | x1 = 0.0022 | x1 = 0.0035 | x1 = 0.0045 | x1 = 0.0056 | x1 = 0.0068 | x1 = 0.008 | x1 = 0.0092 | x1 = 0.0104
293.15 K | 0.18 | 0.34 | 0.48 | 0.6 | 0.72 | 0.83 | – | 1.02 | 1.13
303.15 K | 0.2 | 0.38 | 0.53 | – | 0.79 | 0.9 | 1.01 | 1.11 | 1.22
313.15 K | 0.23 | – | – | 0.75 | 0.87 | 1.01 | 1.12 | 1.23 | 1.33
323.15 K | 0.26 | 0.48 | 0.67 | – | 0.96 | 1.1 | 1.24 | 1.35 | 1.45
